Measured values: patent US11306076B2, “Silibinin lipoic acid ester with hepatoprotective activity and a method of preparing the same” (XI'AN TAIKOMED PHARMACEUTICAL TECHNOLOGY CO., LTD., priority 2020, dated 2022)

How the values were obtained:
[1] = DPPH radical scavenging activity assay; format: biochemical; conditions: for DPPH Clearance rate: n = 3
From the text: 2,2-Diphenyl-1-picryl hydrazyl (DPPH) is an organic compound composed of a stable organic radical. In the DPPH molecule, due to the presence of multiple electron-withdrawing —NO2 and large π bonds of the benzene ring, nitrogen free radical is stabilized. Its methanol solution is purple and has a maximum absorption peak at 517 nm. After the addition of an antioxidant, DPPH captures an electron to be paired with the free electron, and the purple fades and turns into a yellow substance. The absorption at 517 nm disappears, and the degree of fading is quantitatively related to the number of electrons it captures. Based on this principle, a spectrophotometer is used to detect the change of the absorbance of the DPPH radical and the sample solution, and the ability of the sample to provide hydrogen atoms and scavenge free radicals can be measured.
Preparation of DPPH solution: measuring exact amount of 2,2-diphenyl-1-picryl hydrazyl (DPPH) and dissolving in toluene to prepare a 0.2 mmol/L DPPH solution, stored at 0° C. in dark.
Preparation of test solution: Vc (vitamin C, positive control), compound of formula (I) (sample), silibinin (control) and lipoic acid (control). The sample solution was subjected to gradient dilution with toluene, and three sets of controls were separately dissolved in a test tube with a certain amount of toluene to prepare the same concentration gradient as the sample.
Sample liquid absorbance measurement: Take 2 mL of sample solution (Table 2 Vc, B, C), add 2 mL of DPPH solution with concentration of 2×10^−4 mol/L, mix and react in the dark at room temperature for 30 min, adjust to zero with toluene, and measure at 517 nm. The absorbance Ai was simultaneously measured for the absorbance Aj of 2 mL of toluene mixed with 2 mL of the sample solution and the absorbance Ao of 2 mL of DPPH solution mixed with 2 mL of toluene (the experimental results are shown in Table 3).
clearance rate (%)=[1−(Ai−Aj)/Ao]*100% Clearance calculation: […]

[2] = tested on: Mice with Alcoholic Liver Injury; assay: Protective effect on alcoholic liver injury in mice (serum ALT, AST, TG); format: in vivo; conditions: 25 days, ethanol 3 g/kg/day
Procedure: The compound of formula (I) was prepared by the method of example 7. In order to study its protective effect on alcoholic liver injury in mice, the following animal model was designed.
Three-week-old 30-35 g SPF male mice were randomly divided into normal control group, model group, low-dose group, high-dose group and tiopronin positive control group after adaptive feeding for 3 days. The normal control group and model group were fed with basic feed every day; low dose group and high dose group were fed with basic diet every day and were given the compound of formula (I) of 10 mg/kg/day and 50 mg/kg/day, respectively; tiopronin positive control group was fed with basic feed and 50 mg/kg/day tiopronin. Ethanol 3 g/kg/day (0.01 mL/g) was given to the model group, low dose group, high dose group and tiopronin positive control group. The normal control group was given distilled water of the same volume. After 25 days, fasting for 2 hours after the last administration, glutamic pyruvic transaminase (ALT), glutamic oxaloacetic transaminase (AST) and triglyceride (TG) were measured in serum by decapitation.

Compound	DPPH Clearance rate ([1]; 1.76 ppm) [%]	DPPH Clearance rate ([1]; 8.80 ppm) [%]	DPPH Clearance rate ([1]; 21.12 ppm) [%]	DPPH Clearance rate ([1]; 42.24 ppm) [%]	DPPH Clearance rate ([1]; 79.20 ppm) [%]	DPPH Clearance rate ([1]; 112.64 ppm) [%]	DPPH Clearance rate ([1]; 281.60 ppm) [%]	DPPH Clearance rate ([1]; 492.80 ppm) [%]	DPPH Clearance rate ([1]; 792.00 ppm) [%]	DPPH Clearance rate ([1]; 915.20 ppm) [%]	ALT ([2]; 10 mg/kg/day) [U/L]	AST ([2]; 10 mg/kg/day) [U/L]	TG ([2]; 10 mg/kg/day) [mmol/L]	ALT ([2]; 50 mg/kg/day) [U/L]	AST ([2]; 50 mg/kg/day) [U/L]	TG ([2]; 50 mg/kg/day) [mmol/L]	scavenging ability compared with silibinin (B) and lipoic acid (C) alone ([1]; DPPH free radicals, at the same concentration)	scavenging ability compared with the positive control Vc group ([1]; DPPH radical)	highest scavenging rate of DPPH radical ([1]; in the determined concentration range) [%]
O=C(O)CCCCC1CCSS1 (centres unmarked) [C, Lipoic acid]	7.27	8.52	16.42	23.54	36.45	41.58	54.23	67.82	72.01	73.69									
COc1cc(C2Oc3cc([C@H]4Oc5cc(O)cc(O)c5C(=O)[C@@H]4O)ccc3OC2COC(=O)CCCCC2CCSS2)ccc1O (stereo partly drawn) [Compound of Formula (I), (3-(4-hydroxy-3-methoxyphenyl)-6-((2R,3R)-3,5,7-trihydroxy-4-oxochroman-2-yl)-2,3-dihydrobenzo[b][1,4]dioxin-2-yl)methyl 5-(1,2-dithiolan-3-yl)pentanoate]	12.28	19.80	32.16	43.55	69.42	78.95	81.21	86.70	90.06	93.52	61.72 ± 10.37	139.84 ± 18.95	0.902 ± 0.19	57.21 ± 2.93	134.56 ± 6.57	0.873 ± 0.35	better	slightly weaker	93.52
CC(S)C(=O)NCC(=O)O (centres unmarked) [Tiopronin, tiopronin, reference compound]														65.32 ± 8.79	141.37 ± 18.75	1.156 ± 0.33			
